Where “and” joins values, the source holds several entries; their conditions need not be identical. Equal entries are not always repeated.
Assays:
[1] = target: T1, Tyrosine-protein kinase Mer (Homo sapiens) (UniProt Q12866); conditions: at 10 µM
T1 sequence (whole entry): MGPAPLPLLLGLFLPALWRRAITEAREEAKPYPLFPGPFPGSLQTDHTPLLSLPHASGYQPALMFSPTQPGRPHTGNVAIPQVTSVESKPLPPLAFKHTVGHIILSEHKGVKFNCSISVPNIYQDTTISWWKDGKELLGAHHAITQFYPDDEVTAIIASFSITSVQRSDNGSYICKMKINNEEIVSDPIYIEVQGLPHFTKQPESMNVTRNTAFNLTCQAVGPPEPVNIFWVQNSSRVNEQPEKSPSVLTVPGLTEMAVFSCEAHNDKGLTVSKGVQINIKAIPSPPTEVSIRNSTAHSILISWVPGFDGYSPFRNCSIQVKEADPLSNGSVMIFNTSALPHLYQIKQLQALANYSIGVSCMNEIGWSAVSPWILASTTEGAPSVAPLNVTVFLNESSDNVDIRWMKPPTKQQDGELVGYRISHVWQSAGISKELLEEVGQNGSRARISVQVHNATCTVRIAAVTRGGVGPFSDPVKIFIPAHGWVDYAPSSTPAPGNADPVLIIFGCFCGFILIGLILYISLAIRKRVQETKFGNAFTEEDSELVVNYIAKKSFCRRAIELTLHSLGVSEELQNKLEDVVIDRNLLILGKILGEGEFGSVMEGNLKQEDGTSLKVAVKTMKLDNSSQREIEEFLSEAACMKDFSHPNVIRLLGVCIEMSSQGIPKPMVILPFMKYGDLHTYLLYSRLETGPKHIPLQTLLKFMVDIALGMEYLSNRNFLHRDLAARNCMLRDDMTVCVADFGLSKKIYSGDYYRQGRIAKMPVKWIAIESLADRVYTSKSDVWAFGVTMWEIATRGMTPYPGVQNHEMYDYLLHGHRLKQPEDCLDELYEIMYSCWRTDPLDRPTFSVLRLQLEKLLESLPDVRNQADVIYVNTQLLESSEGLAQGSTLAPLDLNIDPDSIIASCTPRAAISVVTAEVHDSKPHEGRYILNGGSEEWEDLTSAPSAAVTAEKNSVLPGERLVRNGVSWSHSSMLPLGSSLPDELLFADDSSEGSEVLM

[2] = target: T2, Serine/threonine-protein kinase TBK1 (Homo sapiens) (UniProt Q9UHD2); conditions: at 1 µM
T2 sequence (whole entry): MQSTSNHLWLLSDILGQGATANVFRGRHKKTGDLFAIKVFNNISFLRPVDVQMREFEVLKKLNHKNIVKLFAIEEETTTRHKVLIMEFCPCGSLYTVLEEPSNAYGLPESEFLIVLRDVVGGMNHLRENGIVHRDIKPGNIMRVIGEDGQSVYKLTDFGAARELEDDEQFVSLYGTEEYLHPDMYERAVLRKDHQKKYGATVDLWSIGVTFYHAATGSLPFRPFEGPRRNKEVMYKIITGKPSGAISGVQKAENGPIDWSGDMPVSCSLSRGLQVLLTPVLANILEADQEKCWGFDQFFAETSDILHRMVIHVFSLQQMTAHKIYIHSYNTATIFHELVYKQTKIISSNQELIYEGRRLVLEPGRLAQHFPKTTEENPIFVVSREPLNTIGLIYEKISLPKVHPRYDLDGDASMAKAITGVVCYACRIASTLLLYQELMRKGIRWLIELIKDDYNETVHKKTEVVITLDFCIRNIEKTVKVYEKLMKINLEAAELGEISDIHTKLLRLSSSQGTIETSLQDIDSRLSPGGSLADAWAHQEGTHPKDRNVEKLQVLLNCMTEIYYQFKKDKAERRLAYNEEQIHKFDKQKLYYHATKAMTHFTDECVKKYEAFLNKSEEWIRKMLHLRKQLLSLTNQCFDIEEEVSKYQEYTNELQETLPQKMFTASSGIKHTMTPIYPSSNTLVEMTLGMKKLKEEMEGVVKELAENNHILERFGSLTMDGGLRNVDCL

[3] = target: T3, Inhibitor of nuclear factor kappa-B kinase subunit epsilon (Homo sapiens) (UniProt Q14164); conditions: at 1 µM
T3 sequence (whole entry): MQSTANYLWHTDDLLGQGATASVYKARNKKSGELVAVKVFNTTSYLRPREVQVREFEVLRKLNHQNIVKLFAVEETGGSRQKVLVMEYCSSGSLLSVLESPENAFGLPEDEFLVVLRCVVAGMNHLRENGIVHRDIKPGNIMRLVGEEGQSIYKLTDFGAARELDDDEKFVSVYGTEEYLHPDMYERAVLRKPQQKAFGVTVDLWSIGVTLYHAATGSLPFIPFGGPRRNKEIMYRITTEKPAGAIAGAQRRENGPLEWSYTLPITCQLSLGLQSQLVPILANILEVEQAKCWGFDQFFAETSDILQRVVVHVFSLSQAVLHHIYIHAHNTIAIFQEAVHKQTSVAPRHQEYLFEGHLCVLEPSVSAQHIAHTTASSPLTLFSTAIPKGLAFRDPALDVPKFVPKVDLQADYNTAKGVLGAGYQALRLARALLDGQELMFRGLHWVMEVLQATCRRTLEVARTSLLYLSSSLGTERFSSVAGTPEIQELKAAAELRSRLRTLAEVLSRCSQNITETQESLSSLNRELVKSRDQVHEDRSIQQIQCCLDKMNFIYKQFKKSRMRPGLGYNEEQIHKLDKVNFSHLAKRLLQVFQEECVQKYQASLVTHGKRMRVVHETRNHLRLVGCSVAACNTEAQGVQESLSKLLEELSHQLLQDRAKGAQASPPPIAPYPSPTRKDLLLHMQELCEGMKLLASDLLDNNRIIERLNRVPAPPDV

Structure (SMILES) | inhibition [1] | inhibition [2] | inhibition [3]
NS(=O)(=O)c1ccc(-c2ccc3c(NC(=O)C4CC4)n[nH]c3c2)cc1 | 11% | -3% and 0% | 1% and -2%
COc1ccc(-c2cc(-c3c[nH]nc3-c3ccccn3)ccn2)cc1 | -5% | -4% and -2% | -2% and -1%
CN(c1ccc(NC(=O)Nc2ccc(OC(F)(F)F)cc2)cc1)c1ccnc(Nc2cccc(S(N)(=O)=O)c2)n1 | -1% | 18% | 17% and 18%
COc1ccc(-c2oc3ncnc(N)c3c2-c2ccc(NC(=O)Nc3cc(C(F)(F)F)ccc3F)cc2)cc1 | -2% | -3% and -1% | 9% and 10%
CN1CCN(Cc2ccc(-c3cc4ncnc(Nc5ccc(OCc6cccc(F)c6)c(Cl)c5)c4s3)o2)CC1 | -4% | 7% and 3% | 6% and 5%
Cc1ccc(-c2cc3c(NC(=O)C4CC4)ncnc3o2)cc1 | 3% | -2% and -3% | -4% and -3%
Cc1ccc(C(=O)NC2CCCCC2)cc1-c1ccc(C(=O)NCC2CC2)cc1 | -8% | -2% and -3% | 0% and -1%
CC1=C(C(=O)Nc2ccc3[nH]ncc3c2)C(c2ccc3ccccc3c2)CC(=O)N1 (stereo not given) | 47% | -2% and -5% | 0% and -3%
CCn1c(-c2nonc2N)nc2cncc(C(=O)N3CC[C@H](N)C3)c21 | 6% | 32% and 36% | 54% and 53%
O=C(Nc1n[nH]c2nc(-c3ccco3)c(Br)cc12)C1CC1 | 83% | 18% and 25% | 0%
COc1cc2c(cc1Nc1nc(Nc3ccsc3C(N)=O)c3cc[nH]c3n1)N(C(=O)CN(C)C)CCC2 | 67% | 23% and 19% | 7% and 6%
CCn1c(-c2nonc2N)nc2c(C#CC(C)(C)O)ncc(OC[C@@H]3CCCN3)c21 | -4% | 65% and 66% | 97%
CCn1c(-c2nonc2N)nc2c(C#CC(C)(C)O)ncc(OC3CCNCC3)c21 | -5% | 55% and 57% | 95% and 96%
Oc1cccc(-c2nc(-c3ccccc3)[nH]c2-c2ccncc2)c1 | 3% | -1% | -1% and -3%
[O-][S+]1CCN(Cc2ccc(-c3ccc4ncnc(Nc5ccc(OCc6cccc(F)c6)c(Cl)c5)c4c3)o2)CC1 | 67% | 7% and 0% | 1% and 2%
CS(=O)(=O)CCNCc1ccoc1-c1ccc2ncnc(Nc3ccc(OCc4ccccc4)cc3)c2c1 | 88% | 5% and 2% | 3%
COc1ccc2cc(-c3c(-c4ccncc4)nc(-c4ccc([S+](C)[O-])cc4)n3C)ccc2c1 (stereo not given) | 77% | -3% and 0% | -1% and 2%
COc1ccc(Nc2ncc(-c3ccccc3)o2)cc1OC | 0% | 8% and 20% | 5% and 4%
CNC(=O)c1cncc(/C=C/c2ccccc2Cl)c1 | 5% | 2% and 1% | 0%
Fc1ccc(-c2ncn(C3CCNCC3)c2-c2ccnc(Oc3ccc4c(c3)OCO4)n2)cc1 | 6% | -3% and -5% | -2% and 2%

Structure (SMILES) | inhibition [1] | inhibition [2] | inhibition [3]
c1ccc(Oc2ccc(Nc3ncc(-c4ccccc4)o3)cc2)cc1 | 27% | -5% and -4% | -2% and -1%
Fc1ccc(-c2ncn(C3CCNCC3)c2-c2ccnc(Oc3ccc(Oc4ccccc4)cc3)n2)cc1 | 0% | 3% and 2% | 1%
Cc1cc(Cl)cc2c1NC(=O)C2=NNc1ccc(S(N)(=O)=O)cc1 | 63% | 29% and 26% | 4%
CCCN1CCC=C(c2ccc(Nc3nc(Nc4ccccc4C(N)=O)c4cc[nH]c4n3)c(C)c2)C1 | 10% | 28% and 24% | 13% and 12%
Fc1ccc(-c2ncn(CCCN3CCOCC3)c2-c2ccncc2)cc1 | 21% | -1% | 0%
COC(=O)Nc1nc2cc(Oc3ccc(NC(=O)Nc4ccccc4)cc3)ccc2[nH]1 | 100% | 8% | 2% and 1%
c1ccc(Cc2nc3ccc(Nc4ncnc5ccccc45)cc3[nH]2)cc1 | 4% | -5% and -7% | -3% and -2%
CNC(=O)c1cc(-c2ccc(F)cc2)cc(-c2ccc(S(=O)(=O)N3CCCC3)cc2)c1N | -7% | 4% and 2% | 0% and -1%
CS(=O)(=O)Nc1ccc(N/C=C2\C(=O)Nc3ccccc32)cc1 | 2% | 29% and 20% | 25% and 24%
CN(C)C(=O)O[C@@H]1CN[C@@H](C#Cc2cc3ncnc(Nc4ccc(OCc5cccc(F)c5)c(Cl)c4)c3s2)C1 | 8% | 12% and 7% | -1%
COc1cc2ncn(-c3cc(OCc4ccccc4S(C)(=O)=O)c(C#N)s3)c2cc1OC | 2% | 103% and 101% | 90% and 88%
Cc1nnc(-c2cccc(-c3ccc(C(=O)NCC4CC4)cc3)c2)o1 | -4% | -1% and -2% | -1%
CCN1CCC(CC(=O)Nc2n[nH]c3nnc(-c4cccc(F)c4F)cc23)CC1 | 9% | 0% | -1% and -3%
NS(=O)(=O)c1ccc(N/N=C2\C(=O)Nc3ccc(Cl)cc32)cc1 | 2% | 5% and 4% | 2% and 1%
Fc1ccc(Nc2nccc(-c3c(-c4ccc(C(F)(F)F)cc4)nn4ncccc34)n2)cc1F | -5% | -5% | -3% and -2%
Fc1ccc(-c2ncn(C3CCNCC3)c2-c2ccnc(Oc3ccccc3)n2)cc1 | 31% | 0% and 3% | -1% and -2%
COc1ccc(COc2ccc(Cc3cnc(N)nc3N)cc2OC)cc1 | 5% | -3% and -2% | -4% and -2%
Nc1nc(-c2ccc(F)cc2)c(-c2ccc3ncccc3n2)s1 | -2% | 4% and 1% | 0% and 1%
CN(C)CCCn1c(-c2nonc2N)nc2cnccc21 | 23% | 1% and 0% | 2%
CC(C)c1ccc(-c2cc(-c3c[nH]nc3-c3ccccn3)ccn2)cc1 | -10% | -5% and -7% | -5%
